The numbers were not newly measured in patent US5180725A, “Quinoxalinyl/quinoxaliy; alkyl-N-terminal amino hydroxy” (G. D. Searle & Co., priority 1991, dated 1993), which cites them from elsewhere.

The structures appear in SMILES notation. Square brackets hold non-standard residues; d marks the D form. Peptide text beside a SMILES is read from it. * marks the point of attachment. Sta = CC(C)C[C@H](N)[C@@H](O)CC(=O)O; Isovaleryl = CC(C)CC(=O)*

This data set relates to hog renin. The settings on record: after the injection of hog renin into nephrectomized rats.

Consider `CC(C)CC(=O)N[C@H](C(=O)N[C@H](C(=O)N[C@@H](CC(C)C)[C@@H](O)CC(=O)N[C@@H](C)C(=O)N[C@@H](CC(C)C)[C@@H](O)CC(=O)O)C(C)C)C(C)C` [pepstatin] (Isovaleryl-VV[Sta]A[Sta]-OH), for which the “blood pressure in vivo” value was “found to reduce blood pressure in vivo”.
